Inhibition and EC50 data for 19 compounds are collected here from patent publication US9951044B2, “Quinazoline derivatives and their use as DNA methyltransferase inhibitors” (PIERRE FABRE MEDICAMENT, priority 2013, dated 2018).

Structures are written as SMILES. Read-outs that look alike come from different tables or passages of the source.

The target of experiment [1] is T1, His-DNMT1 (182 kDa, human) (Homo sapiens, UniProt P26358).
T1 construct: His; made in house
The experiment can be described thus: DNMT1 assay ([methyl-3H] SAM Flashplate). Type of experiment: biochemical. As to conditions: for inhibition at 100 µM: read-out: DNMT1 (% of inhibition) 100 μM; for inhibition at 32 µM: read-out: DNMT1 (% of inhibition) 32 μM. The protocol:
His-DNMT1 (182 kDa, human) was cloned, expressed and purified as described in Halby et al. (ChemBioChem 2012, 13, 157-65). The reaction was performed in a 10 μL total reaction volume in low volume NBS™ 384-well microplates (Corning), containing the tested compound (up to 1% DMSO), 1 μM of a SAM/[methyl-^3H] SAM (3 TBq/mmol, PerkinElmer) mix in a ratio of 3-to-1 (isotopic dilution 1*:3), 0.3 μM of biotinylated hemimethylated DNA duplex (5′-GATmCGCmCGATGmCGmCGAATmCGmCGAT mCGATGmCGAT-3′ and BIOT-5′-[…] ATC-3′), and 90 nM of DNMT1 in methylation buffer (20 mM HEPES pH 7.2, 1 mM EDTA, 50 mM KCl, 25 μg/mL BSA). The reaction was incubated at 37° C. for 2 hours. 8 μL are then transferred into a streptavidin 96-well scintillant coated Flashplate™ (PerkinElmer) containing 190 μL of 20 μM SAH in 50 mM Tris-HCl pH 7.4. The Flashplate™ was agitated at room temperature for 1 hour, washed three times with 200 μL of 0.05% Tween®-20 in 50 mM Tris-HCl pH 7.4, and read in 200 μL of 50 mM Tris-HCl pH 7.4 on TopCount NXT (PerkinElmer).

The target of experiment [2] is T2, human C-terminal DNMT3A (a.a. 623-908) (Homo sapiens, UniProt Q9Y6K1).
T2 construct: The human C-terminal DNMT3A (a.a. 623-908); made in house
T2 sequence (Q9Y6K1 627-912 limits assumed): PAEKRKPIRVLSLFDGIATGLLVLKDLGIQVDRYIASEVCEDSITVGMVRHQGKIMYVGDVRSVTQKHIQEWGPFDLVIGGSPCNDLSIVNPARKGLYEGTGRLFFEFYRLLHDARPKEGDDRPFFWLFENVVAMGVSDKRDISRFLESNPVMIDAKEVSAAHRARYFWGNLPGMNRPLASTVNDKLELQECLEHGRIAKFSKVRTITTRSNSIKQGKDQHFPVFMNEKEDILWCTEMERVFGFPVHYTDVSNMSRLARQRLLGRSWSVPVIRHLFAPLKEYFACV
The experiment can be described thus: DNMT3A assay (restriction-based fluorescence). Type of experiment: biochemical. The following applies: for inhibition at 10 µM: read-out: DNMT3A (% of inhibition) 10 μM; for inhibition at 32 µM: read-out: DNMT3A (% of inhibition) 32 μM; for EC50: concentration range in triplicates; for inhibition at 20 µM: compound at 20 μM. An excerpt:
DNMT3A enzyme inhibition was adapted from the restriction-based fluorescence assay protocol described in Ceccaldi et al. (ChemBioChem 2011, 12, 1337-45). Briefly, a 5′-labelled biotin oligonucleotide is hybridized to its complementary strand labelled with 6-carboxyfluorescein at the 3′-end into a 384 well microplate (black Optiplates; Perkin Elmer) pre-coated with avidin. The duplex contains a unique CpG site overlapping with a restriction site of a methylation sensitive restriction enzyme. The human C-terminal DNMT3A (a.a. 623-908), produced as described in Gros et al. (Nucleic Acids Research 2013 Aug. 25), was added in each well (200 ng/well) and mixed with the chemical compounds at desired concentrations and freshly prepared AdoMet (20 μM final concentration) to start the reaction in a total volume of 50 μL. After 1 hour incubation at 37° C. each well were washed three times with PBS, Tween-20 0.05%, NaCl (500 mM) and three more times with PBST. Specific fluorescent signals were detected with the methylation-sensitive restriction enzyme HpyCH4IV (NEB) as described and measured on a Perkin Elmer Envision detector. The percentage of inhibition is reported. The formula used to calculate the percentage of inhibition is [(X−Y)/X]×100, where X is the signal determined in the absence of the inhibitor and Y is the signal obtained in the presence of the inhibitor. The concentration at which 50% of efficacy of inhibition is observed (EC50) was determined by analysis of a concentration range of the tested compound in triplicates. The non-linear regression fittings with sigmoidal dose-response (variable slope) were performed with GraphPad Prism 4.03 (GraphPad Software).

T1 sequence (P26358 whole entry): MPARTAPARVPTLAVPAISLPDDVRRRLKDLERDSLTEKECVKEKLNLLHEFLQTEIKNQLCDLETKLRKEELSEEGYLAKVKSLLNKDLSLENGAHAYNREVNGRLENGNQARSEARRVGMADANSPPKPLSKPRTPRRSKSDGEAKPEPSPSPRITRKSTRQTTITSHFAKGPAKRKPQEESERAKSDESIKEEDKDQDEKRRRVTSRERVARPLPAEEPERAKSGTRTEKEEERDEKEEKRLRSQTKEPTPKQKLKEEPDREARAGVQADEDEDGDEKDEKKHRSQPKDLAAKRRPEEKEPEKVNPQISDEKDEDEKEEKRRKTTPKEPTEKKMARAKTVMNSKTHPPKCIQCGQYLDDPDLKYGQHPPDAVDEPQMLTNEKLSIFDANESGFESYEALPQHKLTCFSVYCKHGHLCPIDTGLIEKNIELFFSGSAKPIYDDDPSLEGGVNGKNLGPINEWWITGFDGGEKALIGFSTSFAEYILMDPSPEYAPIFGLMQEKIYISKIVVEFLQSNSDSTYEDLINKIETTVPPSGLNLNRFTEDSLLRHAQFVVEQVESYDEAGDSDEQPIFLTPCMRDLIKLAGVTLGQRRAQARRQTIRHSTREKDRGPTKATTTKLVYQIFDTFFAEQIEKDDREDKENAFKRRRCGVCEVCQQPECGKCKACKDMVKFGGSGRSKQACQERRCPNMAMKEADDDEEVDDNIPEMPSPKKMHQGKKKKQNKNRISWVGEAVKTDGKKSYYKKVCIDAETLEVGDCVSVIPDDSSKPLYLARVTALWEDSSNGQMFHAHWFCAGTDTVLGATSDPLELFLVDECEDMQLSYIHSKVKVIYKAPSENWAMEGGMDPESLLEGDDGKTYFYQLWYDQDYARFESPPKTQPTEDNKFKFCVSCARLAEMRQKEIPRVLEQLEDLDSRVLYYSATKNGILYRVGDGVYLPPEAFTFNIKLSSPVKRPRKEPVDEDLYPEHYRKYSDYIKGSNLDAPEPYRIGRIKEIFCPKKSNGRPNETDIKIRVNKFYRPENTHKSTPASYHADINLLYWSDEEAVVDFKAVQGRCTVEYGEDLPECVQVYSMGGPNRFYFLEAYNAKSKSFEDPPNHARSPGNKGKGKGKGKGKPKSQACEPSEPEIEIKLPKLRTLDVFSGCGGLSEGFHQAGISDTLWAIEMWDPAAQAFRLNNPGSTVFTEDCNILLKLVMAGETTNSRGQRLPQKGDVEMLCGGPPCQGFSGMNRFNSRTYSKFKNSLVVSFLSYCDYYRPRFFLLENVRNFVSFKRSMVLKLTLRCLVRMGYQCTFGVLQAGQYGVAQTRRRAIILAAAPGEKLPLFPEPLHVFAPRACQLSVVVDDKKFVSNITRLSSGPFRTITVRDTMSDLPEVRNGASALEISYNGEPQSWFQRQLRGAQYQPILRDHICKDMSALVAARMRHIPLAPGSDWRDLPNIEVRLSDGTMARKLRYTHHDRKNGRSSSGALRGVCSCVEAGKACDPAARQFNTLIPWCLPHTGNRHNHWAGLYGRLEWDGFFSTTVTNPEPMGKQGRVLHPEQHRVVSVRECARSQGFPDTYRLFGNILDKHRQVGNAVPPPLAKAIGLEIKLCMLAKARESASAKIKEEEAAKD

Take `Clc1cccc(CCNc2ncnc3cc(OCC4CCN(CCNc5ccnc6ccccc56)CC4)ccc23)c1` [AA, 4-(2-(3-chlorophenyl)ethylamino)-7-((1-(2-(quinolin-4-ylamino)ethyl)piperidin-4-yl)methoxy)quinazoline]: the inhibition at 100 µM in experiment [1] (compound at 100 μM) amounted to 97%. In experiment [2] (compound at 10 μM), the inhibition at 10 µM was 82%. Besides, the inhibition at 32 µM in experiment [2] (compound at 32 μM) came to 91%. In addition, the EC50 in experiment [2] is 2700 nM.

Take `Clc1ccccc1CCNc1ncnc2cc(OCC3CCN(CCNc4ccnc5ccccc45)CC3)ccc12` [AB, 4-(2-(2-chlorophenyl)ethylamino)-7-((1-(2-(quinolin-4-ylamino)ethyl)piperidin-4-yl)methoxy)quinazoline]: the inhibition at 32 µM stood at 42% in experiment [1] (compound at 32 μM) and 100% in experiment [2] (compound at 32 μM). Further, the inhibition at 100 µM in experiment [1] (compound at 100 μM) stood at 97%.

Consider `Clc1ccc(CCNc2ncnc3cc(OCC4CCN(CCNc5ccnc6ccccc56)CC4)ccc23)cc1` [AC, 4-(2-(4-chlorophenyl)ethylamino)-7-((1-(2-(quinolin-4-ylamino)ethyl)piperidin-4-yl)methoxy)quinazoline], for which the inhibition at 32 µM came out at 75% in experiment [1] (compound at 32 μM) and 100% in experiment [2] (compound at 32 μM). Moreover, in experiment [1] (compound at 100 μM), the inhibition at 100 µM was found to be 97%. Besides, in experiment [2] (compound at 10 μM), the inhibition at 10 µM was 88%. In experiment [2], this compound gave an EC50 of 1900 nM.

In the case of `NS(=O)(=O)c1ccc(CCNc2ncnc3cc(OCC4CCN(CCNc5ccnc6ccccc56)CC4)ccc23)cc1` [AD, 4-(2-(4-sulfonamidophenyl)ethylamino)-7-((1-(2-(quinolin-4-ylamino)ethyl)piperidin-4-yl)methoxy)quinazoline], the values for the inhibition at 32 µM in experiment [1] (compound at 32 μM) and in experiment [2] (compound at 32 μM) were 59% and 93%, respectively. In addition, the inhibition at 100 µM in experiment [1] (compound at 100 μM) was 100%.

With `O=[N+]([O-])c1ccc(CCNc2ncnc3cc(OCC4CCN(CCNc5ccnc6ccccc56)CC4)ccc23)cc1` [AE, 4-(2-(4-nitrophenyl)ethylamino)-7-((1-(2-(quinolin-4-ylamino)ethyl)piperidin-4-yl)methoxy)quinazoline], the inhibition at 32 µM in experiment [1] (compound at 32 μM) was found to be 54%; in experiment [2] (compound at 32 μM), 72%. Further, in experiment [1] (compound at 100 μM), the inhibition at 100 µM was 74%. Also, the inhibition at 10 µM in experiment [2] (compound at 10 μM) turned out to be 61%. For the same compound, a half-maximal effect in experiment [2] (EC50) was put at 1100 nM.

Consider `CC(C)c1ccc(CCNc2ncnc3cc(OCC4CCN(CCNc5ccnc6ccccc56)CC4)ccc23)cc1` [AF, 4-(2-(4-isopropylphenyl)ethylamino)-7-((1-(2-(quinolin-4-ylamino)ethyl)piperidin-4-yl)methoxy)quinazoline], for which the inhibition at 10 µM in experiment [2] (compound at 10 μM) was 53%. For the same compound, the inhibition at 32 µM in experiment [2] (compound at 32 μM) amounted to 83%.

Turning to `COc1ccc(CCNc2ncnc3cc(OCC4CCN(CCNc5ccnc6ccccc56)CC4)ccc23)cc1` [AG, 4-(2-(4-methoxyphenyl)ethylamino)-7-((1-(2-(quinolin-4-ylamino)ethyl)piperidin-4-yl)methoxy)quinazoline], the inhibition at 32 µM came to 77% in experiment [1] (compound at 32 μM) and 100% in experiment [2] (compound at 32 μM). Further, the inhibition at 100 µM in experiment [1] (compound at 100 μM) came to 59%. Further, in experiment [2] (compound at 10 μM), the inhibition at 10 µM was determined as 82%.

`Nc1ccc(CCNc2ncnc3cc(OCC4CCN(CCNc5ccnc6ccccc56)CC4)ccc23)cc1` [AH, 4-(2-(4-aminophenyl)ethylamino)-7-((1-(2-(quinolin-4-ylamino)ethyl)piperidin-4-yl)methoxy)quinazoline]: the inhibition at 32 µM is 59% in experiment [1] (compound at 32 μM) and 96% in experiment [2] (compound at 32 μM). Moreover, the inhibition at 100 µM in experiment [1] (compound at 100 μM) came out at 97%. Further, the inhibition at 10 µM in experiment [2] (compound at 10 μM) is 68%.

For the compound `c1ccc2c(NCCNc3ncnc4cc(OCC5CCN(CCNc6ccnc7ccccc67)CC5)ccc34)ccnc2c1` [AI], the inhibition at 32 µM in experiment [1] (compound at 32 μM) and in experiment [2] (compound at 32 μM) was 99% each time. Further, the inhibition at 100 µM in experiment [1] (compound at 100 μM) worked out at 99%. Besides, in experiment [2] (compound at 10 μM), the inhibition at 10 µM was determined as 86%. The same compound registered an EC50 in experiment [2] of 1000 nM.

Take `c1ccc(NCCNc2ncnc3cc(OCC4CCN(CCNc5ccnc6ccccc56)CC4)ccc23)cc1` [AK, 4-(2-(phenylamino)ethylamino)-7-((1-(2-(quinolin-4-ylamino)ethyl)piperidin-4-yl)methoxy)quinazoline]: the inhibition at 32 µM in experiment [1] (compound at 32 μM) was 93%; in experiment [2] (compound at 32 μM) it was 5%. Further, the inhibition at 100 µM in experiment [1] (compound at 100 μM) was 93%. The inhibition at 10 µM in experiment [2] (compound at 10 μM) came to 76%.

In the case of `c1ccc(CN2CCC(Nc3ncnc4cc(OCC5CCN(CCNc6ccnc7ccccc67)CC5)ccc34)CC2)cc1` [AL], the inhibition at 32 µM is 81% in experiment [1] (compound at 32 μM) and 93% in experiment [2] (compound at 32 μM). Moreover, the inhibition at 100 µM in experiment [1] (compound at 100 μM) worked out at 81%. The inhibition at 10 µM in experiment [2] (compound at 10 μM) was 72%. In experiment [2], this compound displayed an EC50 of 8000 nM.

On to `Clc1ccc2c(NCCN3CCC(COc4ccc5c(NCCCc6ccccc6)ncnc5c4)CC3)ccnc2c1` [AO, 4-((3-phenylpropyl)amino)-7-((1-(2-(7-chloroquinolin-4-ylamino)ethyl)piperidin-4-yl)methoxy)quinazoline], for which the inhibition at 100 µM in experiment [1] stood at 79%. Also, in experiment [2], the inhibition at 10 µM was found to be 70% and the inhibition at 32 µM is 62%.

Consider `COc1ccc2c(NCCN3CCC(COc4ccc5c(NCCCc6ccccc6)ncnc5c4)CC3)ccnc2c1` [AP, 4-((3-phenylpropyl)amino)-7-((1-(2-(7-methoxyquinolin-4-ylamino)ethyl)piperidin-4-yl)methoxy)quinazoline], for which the inhibition at 100 µM in experiment [1] worked out at 90%. In addition, in experiment [2], a half-maximal effect (EC50) was put at 2600 nM, the inhibition at 10 µM was determined as 70% and the inhibition at 32 µM was 80%.

On to `COc1cc2nccc(NCCN3CCC(COc4ccc5c(NCCCc6ccccc6)ncnc5c4)CC3)c2cc1OC` [AQ, 4-((3-phenylpropyl)amino)-7-((1-(2-(6,7-dimethoxyquinolin-4-ylamino)ethyl)piperidin-4-yl)methoxy)quinazoline], for which, in experiment [1], the inhibition at 32 µM stood at 61% and the inhibition at 100 µM amounted to 100%. For the same compound, in experiment [2], the inhibition at 10 µM was 95% and the inhibition at 32 µM was found to be 95%.

Regarding `CN(CCN1CCC(COc2ccc3c(NCCCc4ccccc4)ncnc3c2)CC1)c1ccnc2ccccc12` [AR, 4-((3-phenylpropyl)amino)-7-((1-(2-(methyl(quinolin-4-yl)amino)ethyl)piperidin-4-yl)methoxy)quinazoline], in experiment [2], the concentration giving a half-maximal response (EC50) was 4700 nM, the inhibition at 10 µM was determined as 66% and the inhibition at 32 µM turned out to be 66%.

As for `c1ccc(CCCNc2ncnc3cc(OCC4CCN(CCNc5ccc6ncccc6c5)CC4)ccc23)cc1` [AS, 4-((3-phenylpropyl)amino)-7-((1-(2-(quinolin-6-ylamino)ethyl)piperidin-4-yl)methoxy)quinazoline], in experiment [2], the inhibition at 10 µM stood at 60% and the inhibition at 32 µM turned out to be 60%.

For the compound `Nc1ccc(NCCN2CCC(COc3ccc4c(NCCCc5ccccc5)ncnc4c3)CC2)cc1` [Compound AN], in experiment [2] (compound at 32 μM), the inhibition at 32 µM worked out at 65%.

In experiment [2], `O=CN(CCCNc1ccnc2ccccc12)CCCOc1ccc2c(NCCCc3ccccc3)ncnc2c1` [Compound E, N-(3-((4-((3-phenylpropyl)amino)quinazolin-7-yl)oxy)propyl)-N-(3-(quinolin-4-ylamino)propyl)formamide] registered an inhibition at 20 µM of 27%. Moreover, in experiment [2] (compound at 32 μM), the inhibition at 32 µM worked out at 51%.

Consider `COCn1ccc(NCCN2CCC(COc3ccc4c(NCCCc5ccccc5)ncnc4c3)CC2)nc1=O` [Compound K, 1-(methoxymethyl)-N^4-(2-(4-(((4-((3-phenylpropyl)amino)quinazolin-7-yl)oxy)methyl)piperidin-1-yl)ethyl)cytosine], for which the inhibition at 10 µM in experiment [2] (compound at 10 μM) is 10%. Further, in experiment [2], the inhibition at 20 µM worked out at 40%. Moreover, the inhibition at 32 µM in experiment [2] (compound at 32 μM) was 44%.

What is called inhibition is the drop in the measured response relative to a control, in per cent. What is called EC50 is the concentration giving half of the maximal effect.
